Data on 14 molecules can be found in PubChem BioAssay (NCI).

Several values for one entry are separate records, joined by “and”; a condition that tells them apart may be missing. Equal values may be shown once.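 Assay format: 96-well plates, 48-hour exposure. Abbreviation: GI50, concentration required for 50% inhibition of growth. At the TGI there is no net growth.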

Among the test systems are UO-31 renal; MALME-3M melanoma; SF-295 CNS; NCI-H226 lung; OVCAR-5 ovarian; K-562 leukemia; KM12 colon; RXF 393 renal; HS 578T breast; HCT-15 colon.
Common to all, as to assay: NCI tumour cell line growth inhibition, 48 h

As to `Clc1ccccc1[C@@H]1C[C@@H]2Cc3cc(Br)c4ccccc4c3N1O2`, the GI50 in the test with UO-31 renal was 6.05 µM; with MALME-3M melanoma it was 4.83 µM; in the test on SF-295 CNS it was 3.49 µM; in the test with NCI-H226 lung, 3.65 µM; with OVCAR-5 ovarian, 16.9 µM; in the test on K-562 leukemia, 3.92 µM. The GI50 in the test with KM12 colon is 4.23 µM; in the test with RXF 393 renal it was 1.73 µM; with HS 578T breast, 3.04 µM; with HCT-15 colon it was 4.39 µM. The TGI with UO-31 renal, in the test with MALME-3M melanoma, in the test on SF-295 CNS, in the test on NCI-H226 lung, in the test with OVCAR-5 ovarian and with K-562 leukemia was over 100 µM in each case. For the same molecule, the TGI is over 100 µM in the test with KM12 colon, 4.92 µM in the test on RXF 393 renal, 8.82 µM in the test with HS 578T breast and over 100 µM with HCT-15 colon.

For the molecule `CCN(CC)CCC(=O)OC1C(C)=CC(C)C(=O)CC(C(C)CC2CCC(O)C(OC)C2)OC(=O)C2CCCCN2C(=O)C(=O)[C@@]2(O)OC(CCC2C)CC(OC)\C(C)=C/C=C/C=C/C(C)CC(C)C(=O)C1OC` (stereo not given in full), the TGI amounted to 18.8 µM in the test with MALME-3M melanoma; 18.5 µM with SF-295 CNS; 26.8 µM with NCI-H226 lung; 25.6 µM in the test on OVCAR-5 ovarian; 21.4 µM in the test on K-562 leukemia; 21.2 µM in the test with KM12 colon. In addition, the TGI in the test with RXF 393 renal is 15.2 µM; in the test on HS 578T breast, 13.7 µM; in the test with HCT-15 colon it was 20.6 µM.

In the case of `CCn1c(-c2c(Cl)cc(O)cc2Cl)cc2c(Cl)cc(O)cc21`, the TGI was over 100 µM in the test on UO-31 renal; 39.3 µM in the test with MALME-3M melanoma; 19.8 µM in the test with SF-295 CNS; over 100 µM in the test with NCI-H226 lung; 65 µM with OVCAR-5 ovarian; over 100 µM with K-562 leukemia. The TGI is 61 µM with KM12 colon, 8.03 µM with RXF 393 renal, over 100 µM with HS 578T breast and 12.8 µM in the test on HCT-15 colon.

For the molecule `COc1cc(OC)c(/C=C/C(=O)c2ccc(Nc3ncnc4ccccc34)cc2)c(OC)c1`, the GI50 is 1.44 µM in the test on UO-31 renal; 0.799 µM with MALME-3M melanoma; 0.353 µM in the test with SF-295 CNS; 1.03 µM in the test with NCI-H226 lung; 1.88 µM in the test with OVCAR-5 ovarian; 0.51 µM with KM12 colon. In addition, the GI50 in the test on RXF 393 renal is 0.488 µM; with HS 578T breast it was 0.725 µM; with HCT-15 colon, 0.798 µM. For the same molecule, the TGI is 3.99 µM with UO-31 renal; 2.65 µM in the test with MALME-3M melanoma; 1.92 µM with SF-295 CNS; 3 µM with NCI-H226 lung; 5.32 µM in the test on OVCAR-5 ovarian; over 43.9 µM with KM12 colon. The TGI with RXF 393 renal amounted to 1.95 µM; in the test on HS 578T breast, 5.66 µM; with HCT-15 colon, 24.8 µM.

In the case of `O=C1NC(=O)[C@@]2(CC[C@@H](O)C2)c2ccncc21`, the TGI in the test on UO-31 renal, in the test on MALME-3M melanoma, in the test with NCI-H226 lung, in the test on OVCAR-5 ovarian, in the test with K-562 leukemia and in the test on KM12 colon was over 100 µM each time. The TGI in the test with RXF 393 renal, in the test with HS 578T breast and in the test on HCT-15 colon was over 100 µM in each case.

In the case of `O=C1C=C2C=CC3CC2(O1)C1CCCCN31` (stereo not given), the GI50 is 14.5 µM and 13.8 µM and 38.3 µM with UO-31 renal; 19.7 µM and 6 µM and 51.7 µM in the test on NCI-H226 lung; 34.7 µM and 25.9 µM and > 100 µM in the test on OVCAR-5 ovarian; 67.8 µM and 29.3 µM and 63.3 µM in the test with HS 578T breast; 11.4 µM and 11.8 µM and 31 µM in the test with HCT-15 colon. The TGI is over 100 µM with UO-31 renal; 44.4 µM in the test with MALME-3M melanoma; > 100 µM and 76.1 µM with SF-295 CNS; > 100 µM and 45.3 µM in the test on NCI-H226 lung; over 100 µM in the test with OVCAR-5 ovarian; > 100 µM and 41.8 µM with K-562 leukemia. Moreover, the TGI in the test on KM12 colon was 70.7 µM and 28.5 µM and 57.6 µM; with HS 578T breast, over 100 µM; in the test on HCT-15 colon, 46.4 µM and 29.4 µM and > 100 µM.

For the molecule `CCNc1cc2oc(=O)cc(C(F)(F)F)c2cc1C`, the TGI in the test with UO-31 renal, in the test on SF-295 CNS, with NCI-H226 lung, in the test with OVCAR-5 ovarian, in the test on K-562 leukemia and in the test with KM12 colon was over 100 µM in each case. The TGI with RXF 393 renal, in the test on HS 578T breast and with HCT-15 colon was over 100 µM in each case.

Regarding `Cc1c(NC(=O)CCl)c(=O)oc2c(C)c3occc(=O)c3cc12`, the TGI amounted to 22.4 µM with UO-31 renal; 44.4 µM in the test on MALME-3M melanoma; 25.2 µM in the test with SF-295 CNS; 32.4 µM in the test with OVCAR-5 ovarian; 52 µM in the test on K-562 leukemia; 23.9 µM in the test on KM12 colon. Besides, in the test on HS 578T breast, the TGI amounted to 59.6 µM.

Take `CC(=O)O[C@@]12CO[C@@H]1C[C@H](O)[C@@]1(C)C(=O)[C@H](O)C3=C(C)[C@@H](OC(=O)[C@H](O)[C@@H](NC(=O)OC(C)(C)C)c4ccccc4)C[C@@](O)([C@@H](OC(=O)c4ccccc4)C12)C3(C)C` (stereo not given in full): the GI50 in the test with UO-31 renal is 0.372 µM and 0.192 µM; with MALME-3M melanoma, 11.3 µM; in the test with SF-295 CNS, 0.016 µM; in the test with NCI-H226 lung, 12.8 µM; in the test on K-562 leukemia, under 0.005 µM; in the test on KM12 colon it was under 0.005 µM. In addition, the GI50 in the test with HS 578T breast was under 0.005 µM; with HCT-15 colon, 0.0441 µM and 0.327 µM. The TGI is 50 µM and 81.8 µM with UO-31 renal; 29.6 µM in the test with MALME-3M melanoma; 50 µM and 16.8 µM in the test on SF-295 CNS; over 100 µM in the test with NCI-H226 lung; 89.2 µM in the test with OVCAR-5 ovarian; 50 µM in the test on K-562 leukemia. Moreover, the TGI was 50 µM and 27.7 µM in the test with KM12 colon; 23.5 µM and > 100 µM in the test on HS 578T breast; 50 µM and > 100 µM in the test on HCT-15 colon.

As for `CCC#CC[C@H](O)C/C=C1/C(=O)C=C[C@@H]1C/C=C\CCCC(=O)OC`, the GI50 is 0.864 µM in the test with UO-31 renal; 1.88 µM in the test on MALME-3M melanoma; 1.28 µM in the test with SF-295 CNS; 0.863 µM with NCI-H226 lung; 1.81 µM in the test on OVCAR-5 ovarian; 1.13 µM with K-562 leukemia. Also, the GI50 with RXF 393 renal was 0.865 µM; in the test with HS 578T breast it was 4.3 µM; in the test with HCT-15 colon, 1.17 µM. The TGI in the test with UO-31 renal stood at 1.66 µM; in the test with MALME-3M melanoma, 8.42 µM; in the test on SF-295 CNS, 3.15 µM; in the test on NCI-H226 lung, 1.9 µM; in the test with OVCAR-5 ovarian, 7.88 µM; in the test on K-562 leukemia, 50 µM. In addition, the TGI was found to be 1.64 µM in the test with RXF 393 renal, 46.6 µM in the test on HS 578T breast and 5.09 µM with HCT-15 colon.

Turning to `COc1cc(OC)cc(-c2nc3sccn3c2/C=N/N=C(N)N)c1`, the GI50 was 15.8 µM with UO-31 renal; 8.94 µM with SF-295 CNS; 6.96 µM in the test with NCI-H226 lung; 7.25 µM in the test with OVCAR-5 ovarian; 9.7 µM in the test with K-562 leukemia; 3.13 µM in the test with KM12 colon. For the same molecule, the results for the GI50 in the test on RXF 393 renal, in the test with HS 578T breast and in the test with HCT-15 colon were 7.96 µM, 12.6 µM and 8.1 µM, respectively. Besides, the TGI with UO-31 renal is over 50 µM; in the test with SF-295 CNS, 17.7 µM; in the test with NCI-H226 lung it was 14.8 µM; in the test on OVCAR-5 ovarian, 13.8 µM; in the test on K-562 leukemia, 19 µM; in the test on KM12 colon it was 10.3 µM. Also, the TGI with RXF 393 renal stood at 16.7 µM; in the test with HS 578T breast, 25.3 µM; with HCT-15 colon, 14.9 µM.

Turning to `Cc1c(N)nc([C@H](CC(N)=O)NC[C@H](N)C(N)=O)nc1C(=O)N[C@H](C(=O)N[C@H](C)[C@@H](O)CC(=O)N[C@H](C(=O)NC(O[C@@H]1O[C@@H](C)[C@@H](N)[C@@H](O)[C@H]1O)C(O)c1nc(-c2nc(C(=O)NCCCCN)cs2)cs1)[C@@H](C)O)[C@@H](O[C@@H]1O[C@@H](CO)[C@@H](O)[C@H](O)[C@@H]1O[C@H]1O[C@H](CO)[C@@H](O)[C@H](OC(N)=O)[C@@H]1O)c1c[nH]cn1` (stereo not given in full), the TGI in the test with UO-31 renal, with SF-295 CNS, in the test on NCI-H226 lung, with OVCAR-5 ovarian, in the test on K-562 leukemia and with KM12 colon was over 50 µM throughout. The TGI in the test with RXF 393 renal, with HS 578T breast and with HCT-15 colon was over 50 µM in each case.

On to `O=C(O)CNc1ccc(Cl)c(Cl)c1`, for which the TGI in the test on UO-31 renal was 71.1 µM; with SF-295 CNS it was 75.9 µM; with NCI-H226 lung it was over 100 µM; in the test with OVCAR-5 ovarian, over 100 µM; with K-562 leukemia, 78.4 µM; in the test with KM12 colon, 55.1 µM. Moreover, the TGI with RXF 393 renal was over 100 µM; in the test on HS 578T breast it was over 100 µM; with HCT-15 colon, 95.3 µM.

Consider `COc1cc(-c2nn(-c3cccc(NC(=O)NCCNS(=O)(=O)c4ccc(Cl)cc4)c3)cc2-c2ccncc2)ccc1Cl`, for which the GI50 in the test with UO-31 renal is 2.45 µM; in the test on MALME-3M melanoma it was 0.588 µM; in the test with SF-295 CNS it was 0.513 µM; with NCI-H226 lung it was 1.45 µM; with OVCAR-5 ovarian, 2.82 µM; with KM12 colon, 0.456 µM. Moreover, the GI50 with RXF 393 renal was 0.307 µM; in the test with HS 578T breast it was 0.351 µM; in the test with HCT-15 colon, 2.45 µM. For the same molecule, the TGI in the test on UO-31 renal is over 100 µM; in the test with MALME-3M melanoma it was 2.87 µM; with SF-295 CNS it was 2.09 µM; with NCI-H226 lung it was 14.3 µM; in the test on OVCAR-5 ovarian it was over 100 µM; with KM12 colon, 2.41 µM. Besides, the TGI with RXF 393 renal was determined as 2.18 µM; in the test on HS 578T breast, 5.14 µM; in the test with HCT-15 colon, 8.55 µM.
